Reference: PubChem BioAssay AID1919007 (Molecular Pharmacology Branch, DTP, NCI, 2023)

Tested on: A498 complex spheroids with HUVEC/MSC, growth
Experiment: Anticancer human tumor A498 cell line growth inhibition [AhR];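 also: seven day exposure starting three days after spheroid seeding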;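 as to viability, T/C: luminescence signal used as a surrogate for viable cells; luminescence viability scaled so 100% equals DMSO vehicle wells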
Details: for IC50: curve of first compound; for viability, T/C: stronger effect = lower value
From the text: Multicellular complex tumor spheroid response to aryl hydrocarbon receptor antagonists in combination with a variety of drugs and investigational agents in selected tumor cell lines
The current study was undertaken to assess response to aryl hydrocarbon receptor antagonists in combination with standard-of-care drugs and investigational agents in solid tumor complex spheroid models. Complex spheroids include a stromal component modeled by human endothelial cells (HUVEC) and fibroblasts modeled by human mesenchymal stem cells (MSCs). The concentration ranges selected for each drug and investigational agent were based upon clinically achievable concentrations if the clinical Cmax of the agent was known.
Compounds. The drugs and investigational agents: BAY 2416964 (NSC825713), GNF351 (NSC835774), CH-223191 (NSC835775), CPI-455 (NSC825282), aza-TdCyd (NSC777586), decitabine (NSC127716), belinostat (NSC758774), entinostat (NSC756642), pevonedistat (NSC761192), tazemetostat (NSC777109), talazoparib (NSC765396), olaparib (NSC753686), selinexor (NSC780203), nedisertib (M3814, NSC802822), bortezomib (NSC756655), venetoclax (NSC766270), doxorubicin (NSC123127), elimusertib (BAY189344, NSC800525), ceralasertib (AZD6738, NSC777638), TAK-243 (NSC785004), alisertib (NSC759677), etoposide (NSC141540), topotecan (NSC609699), eribulin (NSC707389), gemcitabine (NSC613327), carboplatin (NSC241240), cisplatin (NSC119875), and SN-38 (NSC673596) were obtained from the National Cancer Institute (NCI) Developmental Therapeutics Program Chemical Repository (32). The FDA-approved anticancer drug set is available from the Developmental Therapeutics Program at https://dtp.cancer.gov/organization/dscb/obtaining/available plates.htm. […] The stock solutions were prepared in dimethyl sulfoxide (DMSO, Sigma-Aldrich, St. Louis, MO, cat. D2650), except for the platinum compounds which were prepared in saline (Quality Biological, Gaithersburg, MD, cat. 114-055-101), at 800-fold the tested concentration and stored at -70 degrees C prior to their use. All drugs and investigational agents were tested over a range starting from a high concentration at or near the clinical Cmax and decreasing in half-log increments. If the clinical Cmax for an agent had not been determined, the highest concentration tested was 10 microM (Table 1).
Cell Culture. All cells were maintained in an incubator at 37 degrees C and 5% CO2 with 95% humidity. The PDC lines were cultured according to standard operating procedures established by the NCI PDMR (https://pdmr.cancer.gov). Briefly, all PDCs were thawed and cultured in Matrigel-coated flasks prepared with a working solution of 1X Ham's F-12 nutrient mix, without supplementation (Invitrogen, Waltham, MA, cat. 11765054), 100 U/mL penicillin-streptomycin (Invitrogen, cat. 15140122), and 2.5% Matrigel (Corning Inc., Corning, NY, cat. 354248) for the first three passages. All PDCs were cultured in complete DMEM/F-12 media containing advanced DMEM/F-12 (Invitrogen, cat. 12634028), 4.9% defined fetal bovine serum, heat inactivated (HyClone Laboratories Inc., Logan, UT, cat. SH30070.03HI), 389 ng/mL hydrocortisone (Sigma-Aldrich, cat. H4001), 9.7 ng/mL human EGF recombinant protein (Invitrogen, cat. PHG0313), 23.4 microg/mL adenine (Sigma-Aldrich, cat. A2786), 97.3 U/mL penicillin-streptomycin (Invitrogen, cat. 15140122), 1.9 mM L-glutamine (Invitrogen, cat. 25030081), and 9.7 microM Y-27632 dihydrochloride (Tocris Bioscience, Bristol, United Kingdom, cat. 1254). The PDCs were cultured in complete DMEM/F12 media without 10 microM Y-27632 dihydrochloride for at least two passages prior to the screen. The established cell lines NCI-H1341 and […] were cultured in DMEM/F-12, HEPES (Invitrogen, cat. 11330032), 5% defined fetal bovine serum (HyClone Laboratories Inc., cat. SH30070.03), ITS premix universal culture supplement [insulin (5 microg/mL), transferrin (5 microg/mL), and selenious acid (5 ng/mL)] […]

[1] = second compound 0.1 µM, first compound 0.0316 µM
[2] = second compound 0.1 µM, first compound 0.1 µM
[3] = second compound 0.1 µM, first compound 0.316 µM
[4] = second compound 0.1 µM, first compound 1 µM
[5] = second compound 0.1 µM, first compound 3.16 µM
[6] = second compound 0.1 µM, first compound 10 µM
[7] = second compound 0.316 µM, first compound 0.0316 µM
[8] = second compound 0.316 µM, first compound 0.1 µM
[9] = second compound 0.316 µM, first compound 0.316 µM
[10] = second compound 0.316 µM, first compound 1 µM
[11] = second compound 0.316 µM, first compound 3.16 µM
[12] = second compound 0.316 µM, first compound 10 µM
[13] = second compound 1 µM, first compound 0.0316 µM
[14] = second compound 1 µM, first compound 0.1 µM
[15] = second compound 1 µM, first compound 0.316 µM
[16] = second compound 1 µM, first compound 1 µM
[17] = second compound 1 µM, first compound 3.16 µM
[18] = second compound 1 µM, first compound 10 µM
[19] = second compound 3.16 µM, first compound 0.0316 µM
[20] = second compound 3.16 µM, first compound 0.1 µM
[21] = second compound 3.16 µM, first compound 0.316 µM
[22] = second compound 3.16 µM, first compound 1 µM
[23] = second compound 3.16 µM, first compound 3.16 µM
[24] = second compound 3.16 µM, first compound 10 µM
[25] = second compound 10 µM, first compound 0.0316 µM
[26] = second compound 10 µM, first compound 0.1 µM
[27] = second compound 10 µM, first compound 0.316 µM
[28] = second compound 10 µM, first compound 1 µM
[29] = second compound 10 µM, first compound 3.16 µM
[30] = second compound 10 µM, first compound 10 µM

## CC1(C)CCC(CN2CCN(c3ccc(C(=O)NS(=O)(=O)c4ccc(NCC5CCOCC5)c([N+](=O)[O-])c4)c(Oc4cnc5[nH]ccc5c4)c3)CC2)=C(c2ccc(Cl)cc2)C1 + CC(CO)NC(=O)c1cc(-c2ccc(Cl)cc2)nn(-c2cnn(C)c2)c1=O
Second compound 0.1 µM
  IC50: 5410 nM
Second compound 0.316 µM
  IC50: 5050 nM
Second compound 1 µM
  IC50: 4900 nM
Second compound 3.16 µM
  IC50: 3970 nM
Second compound 10 µM
  IC50: 3800 nM
[1]
  viability, T/C: 98.3%
[2]
  viability, T/C: 98%
[3]
  viability, T/C: 94.3%
[4]
  viability, T/C: 86.4%
[5]
  viability, T/C: 75.1%
[6]
  viability, T/C: 23.6%
[7]
  viability, T/C: 91.1%
[8]
  viability, T/C: 92.3%
[9]
  viability, T/C: 85.7%
[10]
  viability, T/C: 84.7%
[11]
  viability, T/C: 69.7%
[12]
  viability, T/C: 21.6%
[13]
  viability, T/C: 82.5%
[14]
  viability, T/C: 85.1%
[15]
  viability, T/C: 86.4%
[16]
  viability, T/C: 79.5%
[17]
  viability, T/C: 68.8%
[18]
  viability, T/C: 20.3%
[19]
  viability, T/C: 77.5%
[20]
  viability, T/C: 79.4%
[21]
  viability, T/C: 79.4%
[22]
  viability, T/C: 63.3%
[23]
  viability, T/C: 61.2%
[24]
  viability, T/C: 20.6%
[25]
  viability, T/C: 64.3%
[26]
  viability, T/C: 69.5%
[27]
  viability, T/C: 66.1%
[28]
  viability, T/C: 59.4%
[29]
  viability, T/C: 56.8%
[30]
  viability, T/C: 22.4%

## Nc1ncn(C2CC(O)C(CO)O2)c(=O)n1 (stereo not given) + Cc1ccccc1N=Nc1ccc(NC(=O)c2ccnn2C)c(C)c1
Second compound 0.1 µM
  IC50: > 1000 nM
Second compound 0.316 µM
  IC50: > 1000 nM
Second compound 1 µM
  IC50: > 1000 nM
Second compound 3.16 µM
  IC50: > 1000 nM
Second compound 10 µM
  IC50: > 1000 nM
Second compound 0.1 µM, first compound 0.00316 µM
  viability, T/C: 88.8%
Second compound 0.1 µM, first compound 0.01 µM
  viability, T/C: 91.7%
[1]
  viability, T/C: 88.8%
[2]
  viability, T/C: 93.6%
[3]
  viability, T/C: 86.2%
[4]
  viability, T/C: 77.1%
Second compound 0.316 µM, first compound 0.00316 µM
  viability, T/C: 97%
Second compound 0.316 µM, first compound 0.01 µM
  viability, T/C: 97.5%
[7]
  viability, T/C: 97.4%
[8]
  viability, T/C: 84%
[9]
  viability, T/C: 78.5%
[10]
  viability, T/C: 76.1%
Second compound 1 µM, first compound 0.00316 µM
  viability, T/C: 81.2%
Second compound 1 µM, first compound 0.01 µM
  viability, T/C: 87.3%
[13]
  viability, T/C: 84.4%
[14]
  viability, T/C: 74.9%
[15]
  viability, T/C: 74.6%
[16]
  viability, T/C: 70.6%
Second compound 3.16 µM, first compound 0.00316 µM
  viability, T/C: 84.9%
Second compound 3.16 µM, first compound 0.01 µM
  viability, T/C: 87.2%
[19]
  viability, T/C: 85.8%
[20]
  viability, T/C: 73.9%
[21]
  viability, T/C: 80%
[22]
  viability, T/C: 64%
Second compound 10 µM, first compound 0.00316 µM
  viability, T/C: 90.7%
Second compound 10 µM, first compound 0.01 µM
  viability, T/C: 86.7%
[25]
  viability, T/C: 76.9%
[26]
  viability, T/C: 85.3%
[27]
  viability, T/C: 74.8%
[28]
  viability, T/C: 68%

## CC1COCCN1c1cc(C2(S(C)(=N)=O)CC2)nc(-c2ccnc3[nH]ccc23)n1 (stereo not given) + CC(CO)NC(=O)c1cc(-c2ccc(Cl)cc2)nn(-c2cnn(C)c2)c1=O
Second compound 0.1 µM
  IC50: 1770 nM
Second compound 0.316 µM
  IC50: 1640 nM
Second compound 1 µM
  IC50: 1280 nM
Second compound 3.16 µM
  IC50: 1190 nM
Second compound 10 µM
  IC50: 784 nM
[1]
  viability, T/C: 96.6%
[2]
  viability, T/C: 94.9%
[3]
  viability, T/C: 85.2%
[4]
  viability, T/C: 66%
[5]
  viability, T/C: 34.2%
[6]
  viability, T/C: 18.2%
[7]
  viability, T/C: 88.7%
[8]
  viability, T/C: 89.6%
[9]
  viability, T/C: 84%
[10]
  viability, T/C: 65.1%
[11]
  viability, T/C: 30.2%
[12]
  viability, T/C: 19.7%
[13]
  viability, T/C: 84.3%
[14]
  viability, T/C: 86.8%
[15]
  viability, T/C: 87%
[16]
  viability, T/C: 53.5%
[17]
  viability, T/C: 30.6%
[18]
  viability, T/C: 17.1%
[19]
  viability, T/C: 80.6%
[20]
  viability, T/C: 81.8%
[21]
  viability, T/C: 78.5%
[22]
  viability, T/C: 52.1%
[23]
  viability, T/C: 29.1%
[24]
  viability, T/C: 16.5%
[25]
  viability, T/C: 70.1%
[26]
  viability, T/C: 65.7%
[27]
  viability, T/C: 62.8%
[28]
  viability, T/C: 46.9%
[29]
  viability, T/C: 25.8%
[30]
  viability, T/C: 17.7%

## COc1ccc([C@@H](O)c2cc(-c3ncnc4cc(N5CCOCC5)ccc34)c(F)cc2Cl)nn1 + CC(CO)NC(=O)c1cc(-c2ccc(Cl)cc2)nn(-c2cnn(C)c2)c1=O
Second compound 0.1 µM
  IC50: 346 nM
Second compound 0.316 µM
  IC50: 307 nM
Second compound 1 µM
  IC50: 307 nM
Second compound 3.16 µM
  IC50: 230 nM
Second compound 10 µM
  IC50: 74.4 nM
[1]
  viability, T/C: 83.6%
[2]
  viability, T/C: 79.5%
[3]
  viability, T/C: 49.9%
[4]
  viability, T/C: 26.2%
[5]
  viability, T/C: 15.1%
[6]
  viability, T/C: 9.67%
[7]
  viability, T/C: 78%
[8]
  viability, T/C: 73%
[9]
  viability, T/C: 48.4%
[10]
  viability, T/C: 23.9%
[11]
  viability, T/C: 13.6%
[12]
  viability, T/C: 8.99%
[13]
  viability, T/C: 77.7%
[14]
  viability, T/C: 73.2%
[15]
  viability, T/C: 48.7%
[16]
  viability, T/C: 22.8%
[17]
  viability, T/C: 14.3%
[18]
  viability, T/C: 9.42%
[19]
  viability, T/C: 70.9%
[20]
  viability, T/C: 67.9%
[21]
  viability, T/C: 42.7%
[22]
  viability, T/C: 20.8%
[23]
  viability, T/C: 12.9%
[24]
  viability, T/C: 10%
[25]
  viability, T/C: 55.3%
[26]
  viability, T/C: 49.3%
[27]
  viability, T/C: 33.1%
[28]
  viability, T/C: 21.1%
[29]
  viability, T/C: 12.3%
[30]
  viability, T/C: 7.61%
